For data set [1] the following is noted: cited from earlier work.
The test system of a further data set is animal model of NASH. Kind of data set: Animal model of NASH (hypothesized). In kind it is in vivo. The text has this: Accordingly, in one aspect, methods of treating one or more symptoms of NAFLD and/or NASH, such as hepatocyte ballooning, steatosis, and lobular inflammation, are provided. […] Thus, in some embodiments, administration of pirfenidone as described herein is hypothesized to decrease ballooning and measurably lower plasma and/or liver CK-18 levels in as few as 3 to 12 weeks after treatment initiation. In some embodiments, it is hypothesized that continued daily administration of pirfenidone is efficacious in decreasing inflammation and fibrosis in NASH within 2 to 72 weeks after treatment initiation. In some embodiments, it is hypothesized that treatment with pirfenidone results in an improvement in one or more parameters such as improved ALT enzyme levels, decreased inflammation, decreased steatosis, reduced severity of NASH symptoms, reduced levels of NASH biomarkers such as CK-18, or the slowing, stopping, or reversing of liver fibrosis.

The test system of a further data set is advanced NASH. The note with it: after a year of treatment; cited from earlier work.

These results are taken from patent US20210369693A1, “METHODS AND PHARMACEUTICAL COMPOSITIONS FOR THE TREATMENT OF NON-ALCOHOLIC STEATOHEPATITIS” (Eiger Biopharmaceuticals, Inc., priority 2017, published 2021).

≈ marks a conversion by molar mass, not a printed value.

For `Cc1ccc(=O)n(-c2ccccc2)c1` [pirfenidone, 5-methyl-1-phenyl-2-1-(H)-pyridone], the “relative solubility in solvents” value in data set [1] (methanol, ethyl alcohol, acetone, chloroform vs water and 1.0 N HCl) is “more soluble in methanol, ethyl alcohol, acetone and chloroform than in water and 1.0 N HCl”. Also, in the data set on animal model of NASH (animal model of NASH), the hepatocyte ballooning result is “demonstrates efficacy in slowing and preventing hepatocyte ballooning”; the lobular inflammation result was “reduces”; the steatosis entry is given as “reduces steatosis”. Further, the “plasma CK-18 levels” value in the data set on animal model of NASH (relative to control animals) is given as “decline significantly”.
Turning to `CCCCOCCOc1ccc(-c2ccc3c(c2)/C=C(/C(=O)Nc2ccc([S@@+]([O-])Cc4cncn4CCC)cc2)CCCN3CC(C)C)cc1` [cenicriviroc], the “primary endpoint of improving inflammation and liver damage” value in the data set with advanced NASH was “failed to meet its primary endpoint”.
Consider `CC(C)C[C@H](NC(=O)[C@@H](O)[C@H](N)Cc1ccccc1)C(=O)O` [Ubenimex, (2S)-2-[[(2S,3R)-3-amino-2-hydroxy-4-phenylbutanoyl]amino]-4-methylpentanoic acid], for which, in data set [1] (water), the solubility in water is 1270 µg/mL (≈ 4.12 mM).
